Drawing on BindingDB's records for doi:10.1021/jm100158v (University of California, 2010), this text covers Ki for one molecule.

As usually defined, the Ki is the dissociation constant of the complex between target and ligand, obtained from inhibition or displacement. Lower therefore signals higher affinity.

The nature of this assay: Inhibition of Escherichia coli K12 ADCS by spectrophotometry.

As for `Cc1ccc(C(=O)N[C@@H](CCCCNC(=O)c2cccc(OCC(=O)O)c2)C(=O)N[C@@H](Cc2cccc(Cl)c2)C(N)=O)c([N+](=O)[O-])c1O` [2-(3-((S)-6-((S)-1-amino-3-(3-chlorophenyl)-1-oxopropan-2-ylamino)-5-(3-hydroxy-4-methyl-2-nitrobenzamido)-6-oxohexylcarbamoyl)phenoxy)acetic acid], affinity was put at a Ki of 770 µM.
